Measured values published in ChEMBL document CHEMBL5154776, “Discovery of Potent and Orally Bioavailable Platelet-Derived Growth Factor Receptor (PDGFR) Inhibitors for the Treatment of Osteosarcoma” (J Med Chem, 2022).

Tests used:
[1] = molecular target: T1, Platelet-derived growth factor receptor beta (Homo sapiens, UniProt P09619); assay: Inhibition of PDGFRbeta (unknown origin) at 100 nM by caliper mobility shift assay relative to control
U2OS = assay: Antiproliferative activity against human U2OS cells assessed as reduction in cell viability incubated for 48 hrs by MTT assay
MG-63 = assay: Antiproliferative activity against human MG-63 cells assessed as reduction in cell viability incubated for 48 hrs by MTT assay; conditions: MG-63, 48 h
HOS-TE85 = assay: Antiproliferative activity against human MNNG/HOS cells assessed as reduction in cell viability incubated for 48 hrs by MTT assay; conditions: HOS-TE85, 48 h
SAOS-2 = assay: Antiproliferative activity against human SAOS-2 cells assessed as reduction in cell viability incubated for 48 hrs by MTT assay; conditions: SAOS-2, 48 h
[2] = molecular target: T1, Platelet-derived growth factor receptor beta; assay: Inhibition of PDGFRbeta (unknown origin) by caliper mobility shift assay
[3] = Toxicity in BALB/c nude mouse xenograted with human MNNG/HOS cells assessed as kidney lesion at 30 mg/kg/day, po for 14 days by hematoxylin and eosin staining method; type: organism-based, HOS-TE85; conditions: in vivo, 336 h, time 14 day
[4] = molecular target: Platelet-derived growth factor receptor alpha (Homo sapiens, UniProt P16234); conditions: dose 100.0 nM
Platelet-derived growth factor receptor alpha, sequence (P16234 whole entry): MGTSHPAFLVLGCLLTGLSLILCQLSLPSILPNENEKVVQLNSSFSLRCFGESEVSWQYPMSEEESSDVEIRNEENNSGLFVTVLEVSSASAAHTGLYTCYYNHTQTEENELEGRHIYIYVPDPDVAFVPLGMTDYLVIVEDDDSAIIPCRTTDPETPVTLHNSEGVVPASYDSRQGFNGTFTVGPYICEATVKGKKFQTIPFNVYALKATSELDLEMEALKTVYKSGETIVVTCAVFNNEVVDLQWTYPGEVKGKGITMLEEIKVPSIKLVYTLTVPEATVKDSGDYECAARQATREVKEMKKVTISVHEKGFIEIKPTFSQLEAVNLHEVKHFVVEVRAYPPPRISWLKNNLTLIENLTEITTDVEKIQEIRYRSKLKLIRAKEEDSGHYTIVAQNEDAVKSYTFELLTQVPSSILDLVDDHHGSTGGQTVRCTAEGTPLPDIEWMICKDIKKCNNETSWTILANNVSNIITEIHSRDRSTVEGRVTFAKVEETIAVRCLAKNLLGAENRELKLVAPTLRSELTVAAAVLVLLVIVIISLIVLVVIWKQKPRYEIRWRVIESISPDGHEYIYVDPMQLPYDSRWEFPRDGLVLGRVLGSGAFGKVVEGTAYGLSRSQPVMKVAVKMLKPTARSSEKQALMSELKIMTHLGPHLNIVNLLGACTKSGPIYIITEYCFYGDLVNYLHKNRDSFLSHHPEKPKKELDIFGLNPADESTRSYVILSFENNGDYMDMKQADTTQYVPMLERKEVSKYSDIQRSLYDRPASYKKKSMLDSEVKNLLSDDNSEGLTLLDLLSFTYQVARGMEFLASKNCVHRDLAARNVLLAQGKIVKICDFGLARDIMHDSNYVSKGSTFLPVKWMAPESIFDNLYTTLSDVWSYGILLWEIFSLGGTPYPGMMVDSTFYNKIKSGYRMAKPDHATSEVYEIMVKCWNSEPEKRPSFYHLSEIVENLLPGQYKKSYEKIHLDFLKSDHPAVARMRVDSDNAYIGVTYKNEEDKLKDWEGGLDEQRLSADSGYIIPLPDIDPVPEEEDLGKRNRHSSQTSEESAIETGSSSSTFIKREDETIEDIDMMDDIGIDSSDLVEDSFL
Description: Inhibition of PDGFRalpha (unknown origin) at 100 nM by caliper mobility shift assay relative to control

T1 sequence (P09619 whole entry): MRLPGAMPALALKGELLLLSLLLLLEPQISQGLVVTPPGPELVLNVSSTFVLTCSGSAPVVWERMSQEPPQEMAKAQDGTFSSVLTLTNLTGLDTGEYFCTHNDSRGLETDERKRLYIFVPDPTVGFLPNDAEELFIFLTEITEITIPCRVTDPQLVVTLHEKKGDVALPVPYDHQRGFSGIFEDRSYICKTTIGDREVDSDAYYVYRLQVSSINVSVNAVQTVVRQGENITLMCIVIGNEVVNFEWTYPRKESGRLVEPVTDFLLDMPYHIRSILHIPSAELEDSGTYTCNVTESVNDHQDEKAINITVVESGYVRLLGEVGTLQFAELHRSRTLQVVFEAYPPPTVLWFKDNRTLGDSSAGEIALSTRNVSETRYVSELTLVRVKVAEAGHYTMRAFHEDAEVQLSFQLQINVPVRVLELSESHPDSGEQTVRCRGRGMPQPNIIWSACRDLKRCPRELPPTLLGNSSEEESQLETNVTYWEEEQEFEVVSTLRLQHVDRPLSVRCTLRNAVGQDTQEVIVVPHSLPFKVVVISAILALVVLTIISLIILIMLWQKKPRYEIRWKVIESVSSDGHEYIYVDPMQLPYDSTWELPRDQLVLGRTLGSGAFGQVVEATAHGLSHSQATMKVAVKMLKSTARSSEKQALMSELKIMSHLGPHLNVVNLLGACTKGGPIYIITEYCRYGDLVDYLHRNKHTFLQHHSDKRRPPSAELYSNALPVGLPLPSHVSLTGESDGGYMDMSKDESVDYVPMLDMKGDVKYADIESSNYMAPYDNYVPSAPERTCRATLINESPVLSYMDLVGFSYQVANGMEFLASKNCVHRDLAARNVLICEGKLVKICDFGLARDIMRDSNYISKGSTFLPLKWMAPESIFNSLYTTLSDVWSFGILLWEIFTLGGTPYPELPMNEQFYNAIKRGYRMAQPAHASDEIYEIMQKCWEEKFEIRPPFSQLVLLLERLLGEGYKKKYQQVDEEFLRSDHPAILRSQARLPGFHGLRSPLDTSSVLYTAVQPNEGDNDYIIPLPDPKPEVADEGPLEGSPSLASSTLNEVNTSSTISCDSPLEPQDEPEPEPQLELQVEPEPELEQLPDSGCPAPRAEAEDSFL

SMILES	inhibition [1]	other results
CN1CCN(c2ccc(Nc3nc(Nc4ccc5cn[nH]c5c4)cc(C(F)(F)F)n3)cc2)CC1	3.5%	–
Cc1cnc(Nc2ccc(N3CCN(C)CC3)cc2)nc1Nc1ccc2c(ccn2C)c1	79.2%	–
COc1cc(Nc2ncc(C)c(Nc3ccc4cn[nH]c4c3)n2)ccc1N1CCN(C)CC1	–	IC50 (U2OS): 760 nM; IC50 (MG-63): 840 nM; IC50 (HOS-TE85): 1360 nM; IC50 (SAOS-2): 720 nM; IC50 [2]: 4.6 nM
COc1cnc(Nc2ccc(N3CCN(C)CC3)cc2)nc1Nc1ccc2cn[nH]c2c1	55%	–
Cc1cnc(Nc2ccc(N3CCNCC3)cc2)nc1Nc1ccc2cn[nH]c2c1	–	IC50 [2]: 110 nM
Cc1ccc(NC(=O)c2ccc(CN3CCN(C)CC3)cc2)cc1Nc1nccc(-c2cccnc2)n1 [IMATINIB]	–	Activity [3]: Toxic
Cc1cnc(Nc2ccc(N3CCN(C)CC3)cc2)nc1Nc1ccc2c(c1)CCC2	88.9%	–
Cc1cnc(Nc2ccc(N3CCC(N4CCN(C)CC4)CC3)cc2)nc1Nc1ccc2cn[nH]c2c1	–	IC50 [2]: 16.7 nM
Cc1cnc(Nc2ccc(N3CCN(C)CC3)cc2)nc1Nc1ccc2nn(CCNC(=O)OC(C)(C)C)cc2c1	71.1%	–
CN1CCN(c2ccc(Nc3nc(Nc4ccc5cn[nH]c5c4)c4sccc4n3)cc2)CC1	21.2%	–
CN1CCN(c2ccc(Nc3ncc(Cl)c(Nc4ccc5cn[nH]c5c4)n3)cc2)CC1	95.8%	–
Cc1cnc(Nc2ccc(N3CCS(=O)(=O)CC3)cc2)nc1Nc1ccc2cn[nH]c2c1	–	IC50 [2]: 40.9 nM
CN1CCN(c2ccc(Nc3ncc(C(F)(F)F)c(Nc4ccc5cn[nH]c5c4)n3)cc2)CC1	81%	–
Cc1cnc(Nc2ccc(N3CCN(C)CC3)cc2)nc1Nc1ccc2cn[nH]c2c1	99.6%	–
Cc1cnc(Nc2ccc(N3CCN(C)CC3)cc2)nc1Nc1ccc2[nH]ccc2c1	78.6%	inhibition [4]: 57.3%
CCOC(=O)c1cnc(Nc2ccc(N3CCN(C)CC3)cc2)nc1Nc1ccc2cn[nH]c2c1	30.7%	–
Cc1cnc(Nc2ccc(N3CCN(C)CC3)cc2)nc1Nc1cccc2[nH]ccc12	90.3%	–
